# Results: patent publication US12084472B2 (Ardelyx, Inc., priority 2015, dated 2024)
# Target: T1, human TGR5 (Homo sapiens, UniProt Q8TDU6)
# T1 construct: expressed in transfected cells; host or cells: HEK293
# T1 sequence (Q8TDU6 1-330): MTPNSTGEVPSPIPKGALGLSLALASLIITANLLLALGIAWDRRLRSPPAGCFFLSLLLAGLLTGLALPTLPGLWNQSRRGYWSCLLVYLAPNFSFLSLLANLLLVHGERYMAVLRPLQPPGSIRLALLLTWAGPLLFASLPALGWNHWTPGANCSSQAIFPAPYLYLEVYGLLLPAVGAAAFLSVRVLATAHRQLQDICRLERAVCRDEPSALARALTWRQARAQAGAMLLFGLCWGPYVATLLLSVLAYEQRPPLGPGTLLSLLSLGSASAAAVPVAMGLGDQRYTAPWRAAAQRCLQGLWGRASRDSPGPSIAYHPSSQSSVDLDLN
# Assay: Cell-based TGR5 assay (cAMP generation, HTRF)
# Conditions: HEK293 cells stably transfected with human TGR5; cAMP by HTRF; 30 minutes at 37° C.; read-out: pEC50 Human TGR5 (converted)
# How it was run: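 Read-out was HTRF detection of cAMP, converted to concentration via a standard curve and fitted (3-parameter logistic) for pEC50 and maximal response. Agonist stimulation used HEK293 cells stably transfected with human TGR5, incubated 30 min at 37° C in IBMX-containing buffer at 0.05 nM to 10 μM compound.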
row,SMILES,EC50
1,"CC(CCCCNC(=O)NC[C@H](O)[C@@H](O)[C@H](O)[C@H](O)CO)c1ccc(Cl)c(COC2(c3cnccc3-c3ccccc3OC3CC3)CC2)c1 (stereo partly drawn) [Compound I-275, 1-{5-[4-chloro-3-({1-[4-(2-cyclopropoxyphenyl)pyridin-3-yl]cyclopropoxy}methyl)phenyl]hexyl}-3-[(2S,3R,4R,5R)-2,3,4,5,6-pentahydroxyhexyl]urea]",< 100 nM
2,"CC(CCCCC(=O)O)c1ccc(Cl)c(CNC2(c3cnccc3-c3ccccc3OC3CC3)CC2)c1 (centres unmarked) [Compound I-249, 6-{4-chloro-3-[({1-[4-(2-cyclopropoxyphenyl)pyridin-3-yl]cyclopropyl}amino)methyl]phenyl}heptanoic acid]",< 100 nM
3,"COCCCN(CCCC(C)c1ccc(Cl)c(CNC2(c3cnccc3-c3ccccc3OC3CC3)CC2)c1)C(=O)[C@@H](O)[C@@H](O)[C@H](O)[C@@H](O)CO (stereo partly drawn) [Compound I-284, (2S,3S,4R,5S)-N-(4-{4-chloro-3-[({1-[4-(2-cyclopropoxyphenyl)pyridin-3-yl]cyclopropyl}amino)methyl]phenyl}pentyl)-2,3,4,5,6-pentahydroxy-N-(3-methoxypropyl)hexanamide]",< 100 nM
4,"O=C1CCCN1CCCN(CCCCSc1ccc(Cl)c(COC2(c3cnccc3-c3ccccc3OC3CC3)CC2)c1)C(=O)[C@@H](O)[C@@H](O)[C@H](O)[C@@H](O)CO [Compound I-515, (2S,3S,4R,5S)-N-(4-{[4-chloro-3-({1-[4-(2-cyclopropoxyphenyl)pyridin-3-yl]cyclopropoxy}methyl)phenyl]sulfanyl}butyl)-2,3,4,5,6-pentahydroxy-N-[3-(2-oxopyrrolidin-1-yl)propyl]hexanamide]",< 100 nM
5,"O=C(CCCCc1cc(Cl)c(COC2(c3cnccc3-c3ccccc3OC3CC3)CC2)cc1Cl)N[C@@H]1[C@@H](O)[C@H](O)[C@@H](CO)O[C@H]1O [Compound I-154, 5-[2,5-dichloro-4-({1-[4-(2-cyclopropoxyphenyl)pyridin-3-yl]cyclopropoxy}methyl)phenyl]-N-[(2R,3R,4R,5S,6R)-2,4,5-trihydroxy-6-(hydroxymethyl)oxan-3-yl]pentanamide]",< 100 nM
6,"O=C(NCCOCC[S+]([O-])c1ccc(Cl)c(COC2(c3cnccc3-c3ccccc3OC3CC3)CC2)c1)NC[C@H](O)[C@@H](O)[C@H](O)[C@H](O)CO (stereo partly drawn) [Compound I-491, 1-[2-(2-[[4-chloro-3-([1-[4-(2-cyclopropoxyphenyl)pyridin-3-yl]cyclopropoxy]methyl)benzene]sulfinyl]ethoxy)ethyl]-3-[(2S,3R,4R,5R)-2,3,4,5,6-pentahydroxyhexyl]urea]",126 to 1000 nM
7,"O=C(NCCCCSc1ccc(Cl)c(CNC2(c3cnccc3-c3ccccc3OC3CC3)CC2)c1)NC[C@H](O)[C@@H](O)[C@H](O)[C@H](O)CO [Compound I-623, 1-[4-({4-chloro-3-[({1-[4-(2-cyclopropoxyphenyl)pyridin-3-yl]cyclopropyl}amino)methyl]phenyl}sulfanyl)butyl]-3-[(2S,3R,4R,5R)-2,3,4,5,6-pentahydroxyhexyl]urea]",< 100 nM
8,"O=C(NCCCCC[S+]([O-])c1ccc(Cl)c(COC2(c3cnccc3-c3ccccc3OC3CC3)CC2)c1)[C@@H](O)[C@@H](O)[C@H](O)[C@@H](O)CO (stereo partly drawn) [Compound I-607, (2S,3S,4R,5S)-N-{5-[4-chloro-3-({1-[4-(2-cyclopropoxyphenyl)pyridin-3-yl]cyclopropoxy}methyl)benzenesulfinyl]pentyl}-2,3,4,5,6-pentahydroxyhexanamide]",< 100 nM
9,"COCCCN(C[C@H](O)[C@@H](O)[C@H](O)[C@H](O)CO)C(=O)CCCSc1ccc(Cl)c(COC2(c3cnccc3-c3ccccc3OC3CC3)CC2)c1 [Compound I-673, 4-{[4-chloro-3-({1-[4-(2-cyclopropoxyphenyl)pyridin-3-yl]cyclopropoxy}methyl)phenyl]sulfanyl}-N-(3-methoxypropyl)-N-[(2S,3R,4R,5R)-2,3,4,5,6-pentahydroxyhexyl]butanamide]",126 to 1000 nM
10,"CS(=O)(=O)CCCN(CCCSc1ccc(Cl)c(CNC2(c3cnccc3-c3ccccc3OC3CC3)CC2)c1)C(=O)[C@@H](O)[C@@H](O)[C@H](O)[C@@H](O)CO [Compound I-525, (2S,3S,4R,5S)-N-[3-({4-chloro-3-[({1-[4-(2-cyclopropoxyphenyl)pyridin-3-yl]cyclopropyl}amino)methyl]phenyl}sulfanyl)propyl]-2,3,4,5,6-pentahydroxy-N-(3-methanesulfonylpropyl) hexanamide]",126 to 1000 nM
11,"CC(=O)NCCN(CCCSc1ccc(Cl)c(CNC2(c3cnccc3-c3ccccc3OC3CC3)CC2)c1)C(=O)[C@@H](O)[C@@H](O)[C@H](O)[C@@H](O)CO [Compound I-586, (2S,3S,4R,5S)-N-[3-({4-chloro-3-[({1-[4-(2-cyclopropoxyphenyl)pyridin-3-yl]cyclopropyl}amino)methyl]phenyl}sulfanyl)propyl]-N-(2-acetamidoethyl)-2,3,4,5,6-pentahydroxyhexanamide]",126 to 1000 nM
12,"O=C(CCN(CCC(=O)NC[C@H](O)[C@@H](O)[C@H](O)[C@H](O)CO)C(=O)CCCCc1cc(Cl)c(COC2(c3cnccc3-c3ccccc3OC3CC3)CC2)cc1Cl)NC[C@H](O)[C@@H](O)[C@H](O)[C@H](O)CO (stereo in doubt) [Compound I-168, 5-[2,5-dichloro-4-({1-[4-(2-cyclopropoxyphenyl)pyridin-3-yl]cyclopropoxy}methyl)phenyl]-N,N-bis(2-{[(2S,3R,4R,5R)-2,3,4,5,6-pentahydroxyhexyl]carbamoyl}ethyl)pentanamide]",< 100 nM
13,"O=C([C@@H](O)[C@@H](O)[C@H](O)[C@@H](O)CO)N(CCCCc1cc(Cl)c(COC2(c3cnccc3-c3ccccc3OC3CC3)CC2)cc1Cl)CC1CC1 [Compound I-211, (2S,3S,4R,5S)-N-(cyclopropylmethyl)-N-{4-[2,5-dichloro-4-({1-[4-(2-cyclopropoxyphenyl)pyridin-3-yl]cyclopropoxy}methyl)phenyl]butyl}-2,3,4,5,6-pentahydroxyhexanamide]",< 100 nM
14,"CC(CCCCNC(=O)[C@@H](O)[C@@H](O)[C@H](O)[C@@H](O)CO)c1ccc(Cl)c(COC2(c3cnccc3-c3ccccc3OC3CC3)CC2)c1 (stereo partly drawn) [Compound I-308, (2S,3S,4R,5S)-N-{5-[4-chloro-3-({1-[4-(2-cyclopropoxyphenyl)pyridin-3-yl]cyclopropoxy}methyl)phenyl]hexyl}-2,3,4,5,6-pentahydroxyhexanamide]",< 100 nM
15,"O=C([C@@H](O)[C@@H](O)[C@H](O)[C@@H](O)CO)N(CCCCCO)CCCCCSc1ccc(Cl)c(COC2(c3cnccc3-c3ccccc3OC3CC3)CC2)c1 [Compound I-606, (2S,3S,4R,5S)-N-(5-{[4-chloro-3-({1-[4-(2-cyclopropoxyphenyl)pyridin-3-yl]cyclopropoxy}methyl)phenyl]sulfanyl}pentyl)-2,3,4,5,6-pentahydroxy-N-(5-hydroxypentyl)hexanamide]",< 100 nM
16,O=C(CCCCc1cc(Cl)c(COC2(c3cnccc3-c3ccccc3OC3CC3)CC2)cc1Cl)N[C@@H](C(=O)O)[C@@H](O)[C@H](O)[C@H](O)CO [Compound I-153],< 100 nM
17,"Cc1ccc(C(C)CCCC(=O)N(CC(N)=O)C[C@H](O)[C@@H](O)[C@H](O)[C@H](O)CO)cc1CNC1(c2cnccc2-c2ccccc2OC2CC2)CC1 (stereo partly drawn) [Compound I-356, N-(carbamoylmethyl)-5-{3-[({1-[4-(2-cyclopropoxyphenyl)pyridin-3-yl]cyclopropyl}amino)methyl]-4-methylphenyl}-N-[(2S,3R,4R,5R)-2,3,4,5,6-pentahydroxyhexyl]hexanamide]",< 100 nM
